System: radish
Assay: Permeation of red food coloring water into round radish slices
Method: Using radish that was cut into round slices with thicknesses of 6-10 cm, the bottom faces of the round slices were immersed in red food coloring water for 1-16 hours, As the red food coloring, Red No. 102 (chemical name: 7-hydroxy-8-(4-sulfonaphthylazo)-1,3-naphthylenedisulfonic acid=trisodium salt=1½ hydrate) was used.

SMILES: O.O.O.O=S(=O)([O-])c1cc(S(=O)(=O)[O-])c2c(N=Nc3ccc(S(=O)(=O)[O-])c4ccccc34)c(O)ccc2c1.O=S(=O)([O-])c1cc(S(=O)(=O)[O-])c2c(N=Nc3ccc(S(=O)(=O)[O-])c4ccccc34)c(O)ccc2c1.[Na+].[Na+].[Na+].[Na+].[Na+].[Na+] [Red No. 102, 7-hydroxy-8-(4-sulfonaphthylazo)-1,3-naphthylenedisulfonic acid=trisodium salt=1½ hydrate]
- permeation of red food coloring into radish tissue (bottom face immersed, one hour elapsed): had soaked into the connective tissue at the periphery of the round slices from the bottom face
- sites permeated by red food coloring water (immersed for 16 hours): not found anywhere other than the connective tissue
